From the NIST ThermoML archive (doi:10.1016/j.tca.2016.06.022)

Assay: xn = mol fraction of the nth substance listed
Conditions: 101 kPa, Liquid, Vibrating tube method

NCCN [ethane-1,2-diamine] + O
Conditions	mass density [kg/m3]
274.15 K, x1 = 0.002	999.81
274.15 K, x1 = 0.0033	999.71
274.15 K, x1 = 0.0047	999.62
274.15 K, x1 = 0.0072	999.47
274.15 K, x1 = 0.009	999.38
274.15 K, x1 = 0.0123	999.18
274.15 K, x1 = 0.0222	998.88
274.15 K, x1 = 0.0436	999.22
274.15 K, x1 = 0.0609	1000.11
274.15 K, x1 = 0.0827	1002.02
275.15 K, x1 = 0.002	999.85
275.15 K, x1 = 0.0033	999.74
275.15 K, x1 = 0.0047	999.65
275.15 K, x1 = 0.0072	999.48
275.15 K, x1 = 0.009	999.37
275.15 K, x1 = 0.0123	999.18
275.15 K, x1 = 0.0222	998.82
275.15 K, x1 = 0.0436	999.08
275.15 K, x1 = 0.0609	999.93
275.15 K, x1 = 0.0827	1001.75
276.15 K, x1 = 0.002	999.87
276.15 K, x1 = 0.0033	999.75
276.15 K, x1 = 0.0047	999.66
276.15 K, x1 = 0.0072	999.48
276.15 K, x1 = 0.009	999.37
276.15 K, x1 = 0.0123	999.16
276.15 K, x1 = 0.0222	998.79
276.15 K, x1 = 0.0436	998.93
276.15 K, x1 = 0.0609	999.69
276.15 K, x1 = 0.0827	1001.43
277.15 K, x1 = 0.002	999.87
277.15 K, x1 = 0.0033	999.75
277.15 K, x1 = 0.0047	999.65
277.15 K, x1 = 0.0072	999.47
277.15 K, x1 = 0.009	999.35
277.15 K, x1 = 0.0123	999.12
277.15 K, x1 = 0.0222	998.71
277.15 K, x1 = 0.0436	998.76
277.15 K, x1 = 0.0609	999.54
277.15 K, x1 = 0.0827	1001.13
278.15 K, x1 = 0.002	999.85
278.15 K, x1 = 0.0033	999.73
278.15 K, x1 = 0.0047	999.62
278.15 K, x1 = 0.0072	999.43
278.15 K, x1 = 0.009	999.3
278.15 K, x1 = 0.0123	999.07
278.15 K, x1 = 0.0222	998.62
278.15 K, x1 = 0.0436	998.59
278.15 K, x1 = 0.0609	999.31
278.15 K, x1 = 0.0827	1000.79
278.15 K, x1 = 0.106	1002.72
278.15 K, x1 = 0.1481	1006.44
278.15 K, x1 = 0.2063	1009.32
278.15 K, x1 = 0.2513	1008.93
278.15 K, x1 = 0.3148	1002.73
278.15 K, x1 = 0.3258	1002.11
278.15 K, x1 = 0.3316	1001.85
278.15 K, x1 = 0.341	1001.4
278.15 K, x1 = 0.4038	992.34
278.15 K, x1 = 0.4489	985.23
278.15 K, x1 = 0.4928	977.8
278.15 K, x1 = 0.5468	968.88
278.15 K, x1 = 0.5907	961.76
278.15 K, x1 = 0.6361	954.59
278.15 K, x1 = 0.6843	947.87
278.15 K, x1 = 0.7386	940.37
278.15 K, x1 = 0.7954	933.17
278.15 K, x1 = 0.81	931.24
278.15 K, x1 = 0.8505	926.49
278.15 K, x1 = 0.898	921.18
278.15 K, x1 = 0.9282	917.97
278.15 K, x1 = 0.9584	914.9
